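Growth conditions: 96-well plates. Treatment: test compound, 48 hours, 5 concentrations. Analysis: linear interpolation between bracketing concentrations; unreached endpoints set to highest concentration. GI50 marks 50% less growth. The concentration for full growth arrest is given as TGI.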
What was measured:
Test in all cases: inhibition of tumour cell growth, NCI panel, 48 h
[1] = system: 786-0 renal
[2] = system: A498 renal
[3] = system: A549 NSCLC
[4] = system: BT-549 breast
[5] = system: CAKI-1 renal
[6] = system: CCRF-CEM leukemia
[7] = system: COLO 205 colon
[8] = system: EKVX NSCLC
[9] = system: HCC-2998 colon
[10] = system: HCT-116 colon
[11] = system: HCT-15 colon
[12] = system: HL-60(TB) leukemia
[13] = system: HOP-62 NSCLC
[14] = system: HOP-92 NSCLC
[15] = system: HT29 colon
[16] = system: IGROV1 ovarian
[17] = system: K-562 leukemia
[18] = system: KM12 colon
[19] = system: LOX IMVI melanoma
[20] = system: M14 melanoma
[21] = system: MALME-3M melanoma
[22] = system: MCF7 breast
[23] = system: MDA-MB-231 breast
[24] = system: MOLT-4 leukemia
[25] = system: NCI-H226 lung
[26] = system: NCI-H23 lung
[27] = system: NCI-H460 lung
[28] = system: NCI-H522 lung
[29] = system: NCI/ADR-RES ovarian
[30] = system: OVCAR-3 ovarian
[31] = system: OVCAR-4 ovarian
[32] = system: OVCAR-5 ovarian
[33] = system: OVCAR-8 ovarian
[34] = system: PC-3 prostate
[35] = system: RPMI-8226 leukemia
[36] = system: RXF 393 renal
[37] = system: SF-268 CNS
[38] = system: SF-295 CNS
[39] = system: SF-539 CNS
[40] = system: SK-MEL-2 melanoma
[41] = system: SK-MEL-28 melanoma
[42] = system: SK-MEL-5 melanoma
[43] = system: SK-OV-3 ovarian
[44] = system: SN12C renal
[45] = system: SNB-19 CNS
[46] = system: SNB-75 CNS
[47] = system: SR leukemia
[48] = system: SW-620 colon
[49] = system: T-47D breast
[50] = system: TK-10 renal
[51] = system: U251 CNS
[52] = system: UACC-257 melanoma
[53] = system: UACC-62 melanoma
[54] = system: UO-31 renal

Structure (SMILES): Cn1c(=O)c(-c2c(Cl)cccc2Cl)cc2cnc(Nc3ccc(N4CCOCC4)cc3)nc21
- GI50 [1]: < 10 nM
- TGI [1]: 519 nM
- GI50 [2]: < 43.3 nM
- TGI [2]: 140 nM
- GI50 [3]: 666 nM
- GI50 [4]: 109 nM
- GI50 [5]: < 10 nM
- TGI [5]: 80.6 nM
- GI50 [6]: 27.2 nM
- TGI [6]: 332 nM
- GI50 [7]: < 12.5 nM
- TGI [7]: 477 nM
- GI50 [8]: 798 nM
- TGI [8]: > 30900 nM
- GI50 [9]: 43.1 nM
- TGI [9]: 209 nM
- GI50 [10]: < 10 nM
- TGI [10]: 148 nM
- GI50 [11]: 94.4 nM
- TGI [11]: > 100000 nM
- GI50 [12]: 13.7 nM
- TGI [12]: 216 nM
- GI50 [13]: < 10 nM
- TGI [13]: 124 nM
- GI50 [14]: 211 nM
- TGI [14]: 1930 nM
- GI50 [15]: < 46.7 nM
- TGI [15]: 1170 nM
- TGI [16]: 1330 nM
- GI50 [17]: < 10 nM
- TGI [17]: 53.8 nM
- GI50 [18]: 1380 nM
- TGI [18]: 5090 nM
- GI50 [19]: 178 nM
- TGI [19]: 1310 nM
- GI50 [20]: < 10 nM
- GI50 [21]: 19.6 nM
- TGI [21]: 491 nM
- GI50 [22]: 1490 nM
- TGI [22]: > 100000 nM
- GI50 [23]: < 16.9 nM
- GI50 [24]: < 47.6 nM
- TGI [24]: 804 nM
- GI50 [25]: 74.8 nM
- TGI [25]: > 100000 nM
- GI50 [26]: < 10 nM
- TGI [26]: 310 nM
- GI50 [27]: 570 nM
- GI50 [28]: 20.2 nM
- TGI [28]: 420 nM
- GI50 [29]: 15.8 nM
- TGI [29]: 90 nM
- GI50 [30]: 323 nM
- TGI [30]: > 100000 nM
- GI50 [31]: 404 nM
- TGI [31]: > 100000 nM
- GI50 [32]: 34.9 nM
- TGI [32]: 799 nM
- GI50 [33]: 1090 nM
- TGI [33]: > 100000 nM
- GI50 [34]: 474 nM
- TGI [34]: > 100000 nM
- GI50 [35]: 356 nM
- TGI [35]: 1780 nM
- GI50 [36]: 1360 nM
- TGI [36]: 3860 nM
- GI50 [37]: 391 nM
- TGI [37]: > 27900 nM
- GI50 [38]: 200 nM
- TGI [38]: > 100000 nM
- GI50 [39]: < 45.1 nM
- TGI [39]: 113 nM
- GI50 [40]: 2480 nM
- TGI [40]: > 100000 nM
- GI50 [41]: 675 nM
- TGI [41]: > 100000 nM
- GI50 [42]: 149 nM
- TGI [42]: 1340 nM
- GI50 [43]: < 10 nM
- TGI [43]: > 100000 nM
- GI50 [44]: 129 nM
- TGI [44]: 4650 nM
- GI50 [45]: 561 nM
- TGI [45]: > 22600 nM
- GI50 [46]: < 10 nM
- TGI [46]: 91.6 nM
- GI50 [47]: 140 nM
- TGI [47]: 471 nM
- GI50 [48]: 202 nM
- TGI [48]: > 100000 nM
- GI50 [49]: 598 nM
- TGI [49]: 9770 nM
- TGI [50]: 1240 nM
- GI50 [51]: 170 nM
- TGI [51]: 6130 nM
- TGI [52]: > 22400 nM
- GI50 [53]: < 13.1 nM
- GI50 [54]: 2290 nM
- TGI [54]: 6660 nM
